Activity calls are given as the source filed them. The calls are words filed in the database; no cut-off is given here.
What was measured:
Mu-type opioid receptor [1] = target: Mu-type opioid receptor (Rattus norvegicus, UniProt P33535); experiment: Binding affinity to rat mu opioid receptor
[2] = target: Delta-type opioid receptor (Rattus norvegicus, UniProt P33533); experiment: Binding affinity to rat delta opioid receptor
[3] = target: T1, Delta-type opioid receptor (Homo sapiens, UniProt P41143); experiment: Agonist activity at delta opioid receptor expressed in CHO-hg cells by [35S]-GTPgammaS binding assay; format: functional, cell-based
[4] = target: T1, Delta-type opioid receptor; experiment: Antagonist activity at delta opioid receptor expressed in CHO-hg cells assessed as inhibition of SNC-80-induced [35S]-GTPgammaS binding; format: functional, cell-based
Mu-type opioid receptor [5] = target: T2, Mu-type opioid receptor (Homo sapiens, UniProt P35372); experiment: Agonist activity at mu opioid receptor expressed in CHO-hg cells by [35S]-GTPgammaS binding assay; format: functional, cell-based
[6] = Half life in human liver microsomess; format: ADME, Microsome; conditions: liver microsomes
Cytochrome P450 3A4 = Cytochrome P450 3A4 (Homo sapiens, UniProt P08684); experiment: Inhibition of CYP3A4 in human liver microsomes; format: ADME, Microsome
Mu-type opioid receptor [7] = target: T2, Mu-type opioid receptor; experiment: Binding affinity to human mu opioid receptor
[8] = target: Voltage-gated inwardly rectifying potassium channel KCNH2 (Homo sapiens, UniProt Q12809); experiment: Displacement of [3H]-astemizole from human ERG
[9] = Solubility of the compound at pH 7.4; format: physicochemical; conditions: buffer
[10] = target: T3, Kappa-type opioid receptor (Cavia porcellus, UniProt P41144); experiment: Binding affinity to guinea pig kappa opioid receptor
[11] = target: T3, Kappa-type opioid receptor; experiment: Agonist activity at kappa opioid receptor guinea pig colon tissue; format: functional, tissue-based
[12] = Antagonist activity at delta opioid receptor in hamster vas deferens tissue; format: functional, tissue-based; conditions: Cricetinae

T2 sequence (P35372 whole entry): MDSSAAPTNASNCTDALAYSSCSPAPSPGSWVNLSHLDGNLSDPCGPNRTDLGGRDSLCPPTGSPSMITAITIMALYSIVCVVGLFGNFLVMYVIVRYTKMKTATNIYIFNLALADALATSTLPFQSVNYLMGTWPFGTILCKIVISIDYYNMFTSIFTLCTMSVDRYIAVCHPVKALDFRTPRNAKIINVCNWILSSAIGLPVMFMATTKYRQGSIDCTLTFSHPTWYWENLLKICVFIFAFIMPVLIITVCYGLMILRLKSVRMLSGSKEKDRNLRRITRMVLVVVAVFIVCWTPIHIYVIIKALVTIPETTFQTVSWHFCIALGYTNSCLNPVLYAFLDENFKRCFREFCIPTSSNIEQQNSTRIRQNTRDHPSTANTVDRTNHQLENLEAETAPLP
Sequence of Delta-type opioid receptor (Rattus norvegicus, UniProt P33533) (P33533 whole entry): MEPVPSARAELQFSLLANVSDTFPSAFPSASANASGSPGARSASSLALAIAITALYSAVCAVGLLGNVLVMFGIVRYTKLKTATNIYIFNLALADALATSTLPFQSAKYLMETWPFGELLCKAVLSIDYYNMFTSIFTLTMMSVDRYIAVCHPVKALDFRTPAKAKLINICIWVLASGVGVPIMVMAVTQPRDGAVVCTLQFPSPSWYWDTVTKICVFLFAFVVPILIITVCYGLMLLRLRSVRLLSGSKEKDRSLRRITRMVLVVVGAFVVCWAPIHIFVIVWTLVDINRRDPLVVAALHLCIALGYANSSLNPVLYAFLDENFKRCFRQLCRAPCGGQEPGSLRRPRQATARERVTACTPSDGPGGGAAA
Sequence of Mu-type opioid receptor (Rattus norvegicus, UniProt P33535) (P33535 whole entry): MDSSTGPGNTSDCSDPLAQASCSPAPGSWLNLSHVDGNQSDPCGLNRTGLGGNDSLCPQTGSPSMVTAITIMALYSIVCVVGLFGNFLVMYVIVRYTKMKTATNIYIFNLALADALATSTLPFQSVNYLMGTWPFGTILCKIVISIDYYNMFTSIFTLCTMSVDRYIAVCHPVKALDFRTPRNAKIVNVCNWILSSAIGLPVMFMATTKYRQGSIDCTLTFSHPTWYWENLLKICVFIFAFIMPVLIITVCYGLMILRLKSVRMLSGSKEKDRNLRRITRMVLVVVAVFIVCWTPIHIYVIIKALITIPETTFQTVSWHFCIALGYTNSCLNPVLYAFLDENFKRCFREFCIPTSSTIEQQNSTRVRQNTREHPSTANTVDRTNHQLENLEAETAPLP
T1 sequence (P41143 whole entry): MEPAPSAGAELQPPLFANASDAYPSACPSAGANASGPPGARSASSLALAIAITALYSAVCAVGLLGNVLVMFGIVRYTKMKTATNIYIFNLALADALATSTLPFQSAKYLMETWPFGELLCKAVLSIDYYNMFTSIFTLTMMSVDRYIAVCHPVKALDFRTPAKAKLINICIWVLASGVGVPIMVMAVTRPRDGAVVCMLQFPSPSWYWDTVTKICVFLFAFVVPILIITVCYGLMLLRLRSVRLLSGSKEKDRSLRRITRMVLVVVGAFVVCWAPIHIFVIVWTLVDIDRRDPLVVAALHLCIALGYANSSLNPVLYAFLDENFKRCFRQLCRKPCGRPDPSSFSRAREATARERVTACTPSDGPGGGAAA
T3 sequence (P41144 whole entry): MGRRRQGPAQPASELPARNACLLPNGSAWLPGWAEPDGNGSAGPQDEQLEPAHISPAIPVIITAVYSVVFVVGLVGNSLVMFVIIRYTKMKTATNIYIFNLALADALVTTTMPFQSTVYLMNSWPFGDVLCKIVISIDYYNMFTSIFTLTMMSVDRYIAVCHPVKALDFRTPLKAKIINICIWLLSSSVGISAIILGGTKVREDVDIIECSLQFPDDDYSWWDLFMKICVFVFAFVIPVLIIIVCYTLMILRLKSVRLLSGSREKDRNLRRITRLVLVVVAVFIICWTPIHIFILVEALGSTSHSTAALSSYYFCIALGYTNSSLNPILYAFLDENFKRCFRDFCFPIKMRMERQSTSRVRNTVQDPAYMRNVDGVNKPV
Sequence of Cytochrome P450 3A4 (P08684 whole entry): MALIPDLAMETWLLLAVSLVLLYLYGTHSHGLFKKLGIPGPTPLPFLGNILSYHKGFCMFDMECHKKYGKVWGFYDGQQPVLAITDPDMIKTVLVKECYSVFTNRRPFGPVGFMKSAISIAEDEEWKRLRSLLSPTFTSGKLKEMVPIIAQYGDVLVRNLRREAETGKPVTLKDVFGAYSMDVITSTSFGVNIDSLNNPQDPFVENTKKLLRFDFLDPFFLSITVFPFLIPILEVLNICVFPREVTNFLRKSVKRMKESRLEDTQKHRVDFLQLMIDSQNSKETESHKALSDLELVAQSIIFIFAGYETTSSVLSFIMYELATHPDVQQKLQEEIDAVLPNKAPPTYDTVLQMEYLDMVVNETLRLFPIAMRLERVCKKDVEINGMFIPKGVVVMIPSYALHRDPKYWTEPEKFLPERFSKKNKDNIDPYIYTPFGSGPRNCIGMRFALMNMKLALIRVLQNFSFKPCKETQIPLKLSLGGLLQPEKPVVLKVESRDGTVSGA
Sequence of Voltage-gated inwardly rectifying potassium channel KCNH2 (Q12809 whole entry): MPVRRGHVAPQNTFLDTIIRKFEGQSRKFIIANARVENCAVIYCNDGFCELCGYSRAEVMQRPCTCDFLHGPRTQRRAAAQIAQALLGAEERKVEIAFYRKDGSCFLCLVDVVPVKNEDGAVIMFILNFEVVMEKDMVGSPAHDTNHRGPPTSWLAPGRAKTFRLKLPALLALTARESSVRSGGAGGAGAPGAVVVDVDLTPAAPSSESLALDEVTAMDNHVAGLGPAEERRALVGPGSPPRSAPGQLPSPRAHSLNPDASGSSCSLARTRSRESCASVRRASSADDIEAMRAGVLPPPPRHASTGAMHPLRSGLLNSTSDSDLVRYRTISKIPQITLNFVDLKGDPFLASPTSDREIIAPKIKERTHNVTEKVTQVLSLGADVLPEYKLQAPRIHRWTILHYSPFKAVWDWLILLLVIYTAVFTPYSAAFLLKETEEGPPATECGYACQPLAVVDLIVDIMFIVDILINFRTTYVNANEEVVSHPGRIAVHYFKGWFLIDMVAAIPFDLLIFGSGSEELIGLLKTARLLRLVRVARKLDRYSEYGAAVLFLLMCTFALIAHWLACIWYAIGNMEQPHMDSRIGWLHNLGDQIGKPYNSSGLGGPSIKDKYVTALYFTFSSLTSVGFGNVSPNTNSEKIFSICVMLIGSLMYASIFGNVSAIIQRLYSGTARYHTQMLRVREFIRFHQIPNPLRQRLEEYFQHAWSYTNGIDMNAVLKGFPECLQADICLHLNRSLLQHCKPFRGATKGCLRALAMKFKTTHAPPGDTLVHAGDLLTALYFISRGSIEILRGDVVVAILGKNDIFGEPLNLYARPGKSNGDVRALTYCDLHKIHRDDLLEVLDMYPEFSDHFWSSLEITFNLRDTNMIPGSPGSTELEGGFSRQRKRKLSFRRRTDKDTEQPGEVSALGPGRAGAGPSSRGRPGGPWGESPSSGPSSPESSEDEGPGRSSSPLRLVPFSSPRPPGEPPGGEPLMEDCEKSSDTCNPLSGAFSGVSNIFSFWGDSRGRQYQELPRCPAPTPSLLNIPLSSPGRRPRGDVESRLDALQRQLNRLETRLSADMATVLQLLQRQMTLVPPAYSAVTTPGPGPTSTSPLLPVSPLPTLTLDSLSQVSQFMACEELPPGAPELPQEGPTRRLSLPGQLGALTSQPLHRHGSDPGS

SMILES	Ki (Mu-type opioid receptor [1])	Ki [2]	EC50 [3]	EC50 (Mu-type opioid receptor [5])	also measured
Cc1cc(O)cc(C)c1C[C@H](N)C(=O)N(C(C)C)[C@@H](C)c1nc(-c2ccccc2)c[nH]1	0.03 nM	1.4 nM	103 nM	–	–
Cc1cc(C(N)=O)cc(C)c1C[C@H](N)C(=O)N(Cc1cccc(C(=O)O)c1)[C@@H](C)c1nc(-c2ccccc2)c[nH]1	1 nM	0.5 nM	> 10000 nM	–	inhibition [4]: Active
N[C@@H](Cc1ccc(O)cc1)C(=O)N1Cc2ccccc2C[C@H]1c1nc(-c2ccccc2)c[nH]1	–	–	19 nM	2440 nM	–
Cc1cc(O)cc(C)c1C[C@H](N)C(=O)N1Cc2ccccc2C[C@H]1c1nc(-c2ccccc2)c[nH]1	–	–	0.9 nM	27 nM	–
Cc1cc(O)cc(C)c1C[C@H](N)C(=O)N(Cc1nc(-c2ccccc2)c[nH]1)C(C)C	0.1 nM	15 nM	–	–	–
Cc1cc(O)cc(C)c1C[C@H](N)C(=O)N[C@@H](Cc1ccccc1)c1nc(-c2ccccc2)c[nH]1	13 nM	–	–	–	–
COc1ccc(CN(C(=O)[C@@H](N)Cc2c(C)cc(C(N)=O)cc2C)C(C)c2nc(-c3ccccc3)c[nH]2)cc1C(=O)O.Cl.Cl (single isomer, unassigned)	–	–	–	–	half-life [6]: 2.5 h; IC50 (Cytochrome P450 3A4): > 20000 nM; Ki (Mu-type opioid receptor [7]): 1.7 nM; IC50 [8]: > 10000 nM; solubility [9]: > 1000 µg/mL
Cc1cc(C(N)=O)cc(C)c1C[C@H](N)C(=O)N(Cc1ccccc1)[C@@H](C)c1nc(-c2ccccc2)c[nH]1	0.3 nM	–	–	–	–
Cc1cc(O)cc(C)c1C[C@H](N)C(=O)N1CCCC[C@H]1c1nc(-c2ccccc2)c[nH]1	–	–	37 nM	2 nM	–
COc1ccc(CN(C(=O)[C@@H](N)Cc2c(C)cc(C(N)=O)cc2C)[C@@H](C)c2nc(-c3ccccc3)c[nH]2)cc1C(=O)O [ELUXADOLINE]	0.9 nM	1.3 nM	> 10000 nM	–	Ki [10]: 55 nM; EC50 [11]: 1600 nM
Cc1cc(C(N)=O)cc(C)c1C[C@H](N)C(=O)N1CCCC[C@H]1c1nc(-c2ccccc2)c[nH]1	–	–	135 nM	9 nM	–
Cc1cc(C(N)=O)cc(C)c1C[C@H](N)C(=O)N1Cc2ccccc2C[C@H]1c1nc(-c2ccccc2)c[nH]1	–	–	22 nM	161 nM	–
Cc1cc(O)cc(C)c1C[C@H](N)C(=O)N(C)[C@@H](C)c1nc(-c2ccccc2)c[nH]1	–	15 nM	–	–	–
Cc1cc(O)cc(C)c1C[C@H](N)C(=O)N(Cc1ccccc1)[C@@H](C)c1nc(-c2ccccc2)c[nH]1	–	1.5 nM	–	–	–
COc1ccc(CN(C(=O)[C@@H](N)Cc2c(C)cc(C(N)=O)cc2C)[C@@H](C)c2ncc(-c3ccccc3)[nH]2)cc1C(=O)O [ELUXADOLINE]	–	–	–	–	IC50 [12]: 89 nM; inhibition [4]: Active

Source: ChEMBL document CHEMBL2157906, “Identification of a dual δ OR antagonist/μ OR agonist as a potential therapeutic for diarrhea-predominant Irritable Bowel Syndrome (IBS-d)” (Bioorg Med Chem Lett, 2012)
